Source: patent publication US20250381110A1, “SKIN CARE COMPOSITION AND METHOD OF USING THE SAME” (THE PROCTER & GAMBLE COMPANY, priority 2024, published 2025)
Where a name gives a salt, the structure may show the parent alone.

Tested on: p62-dependent mitophagy
Experiment: Luciferase-p62 assay (Fluc-p62 clearance) in mouse embryonic fibroblasts
Format: cell-based
Conditions: for Mean Luminescence: Luciferase-p62 assay, mouse embryonic fibroblasts (MEFs), compounds at 10 μM; for % Activity over baseline: percentage of Luciferase-p62 clearance relative to baseline (mean luminescence in the absence of doxycycline induction); for % Activity over baseline / % Activity relative to Rapamycin: MEFs, 10 μM; for % Activity relative to Rapamycin: percentage of activity relative to rapamycin tested in the same experiment at the same concentration
Outline: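 MEFs with doxycycline-inducible Fluc-p62; after induction, doxycycline removed and cells treated 48 h with compounds at 10 μM. Fluc-p62 clearance, taken as mitophagy, read by ONE-Glo+Tox luciferase with viability. Vehicle (DMSO) as negative control; activity also expressed relative to rapamycin.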

SMILES | Mean Luminescence | % Activity over baseline [%] | % Activity relative to Rapamycin [%]
CC(Cc1ccc(O)c(O)c1)C(C)Cc1ccc(O)c(O)c1 (stereo not drawn) [Nordihydroguaiaretic acid] | 964.84 | 40.37 | 72.74
CO[C@H]1C[C@H](O[C@H]2CC[C@@]3(C)[C@H](CC[C@@H]4[C@@H]3CC[C@]3(C)[C@@H](C5=CC(=O)OC5)[C@@H](OC(C)=O)C[C@]43O)C2)O[C@@H](C)[C@@H]1O [Oleandrin] | 766.18 | 52.65 | 94.86
C/C=C1/[C@H](O[C@@H]2O[C@H](CO)[C@@H](O)[C@H](O)[C@H]2O)OC=C(C(=O)OC)[C@H]1CC(=O)OCCc1ccc(O)c(O)c1 [Oleuropein] | 843.32 | 47.88 | 86.27
C[C@@H]1O[C@@H](O[C@H]2C[C@@H](O)[C@]3(CO)[C@H]4[C@H](O)C[C@]5(C)[C@@H](C6=CC(=O)OC6)CC[C@]5(O)[C@@H]4CC[C@]3(O)C2)[C@H](O)[C@H](O)[C@H]1O [Ouabain] | 788.34 | 51.28 | 92.39
CCN(CC)CC#CCOC(=O)C(O)(c1ccccc1)C1CCCCC1 (stereo not drawn) [Oxybutynin chloride] | 882.87 | 45.44 | 81.87
Oc1cc(O)cc(/C=C/c2ccc(O)cc2O)c1 [Oxyresveratrol] | 403.74 | 75.05 | 135.22
O=C1c2cccc3c2[C@H](CCC3)CN1[C@@H]1CN2CCC1CC2 [Palonosetron HCl] | 915.97 | 43.39 | 78.18
O=C(CCc1ccc(O)cc1)c1c(O)cc(O)cc1O [Phloretin] | 912.42 | 43.61 | 78.58
CCc1ccc(CCOc2ccc(CC3SC(=O)NC3=O)cc2)nc1 (stereo not drawn) [Pioglitazone] | 847.16 | 47.65 | 85.84
COc1cccc2c1C(=O)c1c(O)c3c(c(O)c1C2=O)C[C@@](O)(C(=O)CO)C[C@@H]3O[C@H]1C[C@H](N)[C@H](O[C@@H]2CCCCO2)[C@H](C)O1 [Pirarubicin] | 978.32 | 39.54 | 71.24
CC(=O)[C@H]1CC[C@H]2[C@@H]3CC=C4C[C@@H](O)CC[C@]4(C)[C@H]3CC[C@]12C [Pregnenolone] | 870.09 | 46.23 | 83.29
CCCNC(C)C(=O)Nc1ccccc1C (stereo not drawn) [Prilocaine] | 905.23 | 44.06 | 79.38
C[C@H](CC[C@@]1(O)O[C@H]2C[C@H]3[C@@H]4CC=C5C[C@@H](O[C@@H]6O[C@H](CO)[C@@H](O[C@@H]7O[C@@H](C)[C@H](O)[C@@H](O)[C@H]7O)[C@H](O)[C@H]6O[C@@H]6O[C@@H](C)[C@H](O)[C@@H](O)[C@H]6O)CC[C@]5(C)[C@H]4CC[C@]3(C)[C@H]2[C@@H]1C)CO[C@@H]1O[C@H](CO)[C@@H](O)[C@H](O)[C@H]1O [Protodioscin] | 713.58 | 55.90 | 100.72
Oc1ccccc1O [Pyrocatechol] | 906.35 | 43.99 | 79.25
Oc1cccc(O)c1O [Pyrogallol] | 936.38 | 42.13 | 75.91
CC(=O)CCc1ccc(O)cc1 [Raspberry ketone] | 696.39 | 56.96 | 102.63
COC(=O)[C@H]1[C@H]2C[C@@H]3c4[nH]c5cc(OC)ccc5c4CCN3C[C@H]2C[C@@H](OC(=O)c2cc(OC)c(OC)c(OC)c2)[C@@H]1OC [Reserpine hydrochloride] | 810.13 | 49.93 | 89.97

SMILES | Mean Luminescence | % Activity over baseline [%] | % Activity relative to Rapamycin [%]
COC(=O)[C@H]1[C@H]2C[C@@H]3c4[nH]c5cc(OC)ccc5c4CCN3C[C@H]2C[C@@H](OC(=O)c2cc(OC)c(OC)c(OC)c2)[C@@H]1OC [Reserpine] | 915.14 | 43.44 | 78.27
CC[C@H]1CN2CC[C@]3(C(=O)Nc4ccccc43)[C@@H]2C[C@@H]1/C(=C\OC)C(=O)OC [Rhynchophylline] | 953.80 | 41.05 | 73.97
O[C@@H]1[C@@H](O)[C@H](OC/C=C/c2ccccc2)O[C@H](CO[C@@H]2OC[C@H](O)[C@H](O)[C@H]2O)[C@H]1O [Rosavin] | 983.74 | 39.20 | 70.64
C[C@H]1O[C@@H](O[C@H]2CC[C@@]3(C)[C@@H](CC[C@]4(C)[C@@H]3C=C[C@]35OC[C@@]6(CCC(C)(C)C[C@H]63)[C@@H](O)C[C@]54C)[C@]2(C)CO)[C@H](O)[C@@H](O[C@@H]2O[C@H](CO)[C@@H](O)[C@H](O)[C@H]2O)[C@H]1O [Saikosaponin A] | 561.50 | 65.30 | 117.65
CC[C@@H](C(=O)[C@@H](C)[C@@H](O)[C@H](C)[C@@H]1O[C@@H]([C@@H](CC)C(=O)O)CC[C@@H]1C)[C@H]1O[C@]2(C=C[C@@H](O)[C@]3(CC[C@@](C)([C@H]4CC[C@](O)(CC)[C@H](C)O4)O3)O2)[C@H](C)C[C@@H]1C [Salinomycin] | 792.70 | 51.01 | 91.91
CCOC(=O)NCCCC(=O)NCCc1ccccc1 [Santacruzamate A (CAY10683)] | 972.04 | 39.93 | 71.94
CN1[C@@H]2C[C@@H](OC(=O)[C@H](CO)c3ccccc3)C[C@H]1[C@@H]1O[C@@H]12 [Scopolamine hydrobromide] | 937.62 | 42.05 | 75.77
CC(C)=CCOc1ccc(/C=C/C(=O)c2ccc(OCC=C(C)C)cc2OCC(=O)O)cc1 [Sofalcone] | 760.95 | 52.97 | 95.44
CNC(=O)c1cc(Oc2ccc(NC(=O)Nc3ccc(Cl)c(C(F)(F)F)c3)cc2)ccn1 [Sorafenib] | 932.25 | 42.39 | 76.37
CN[C@@H]1[C@H](O)[C@H](NC)[C@H]2O[C@@]3(O)C(=O)C[C@@H](C)O[C@H]3O[C@@H]2[C@H]1O [Spectinomycin dihydrochloride] | 953.21 | 41.09 | 74.04
NCCCNCCCCNCCCN [Spermine] | 720.40 | 55.48 | 99.96
COc1cc(NS(=O)(=O)c2ccc(N)cc2)nc(OC)n1 [Sulfadimethoxine] | 821.82 | 49.21 | 88.67
COc1cc(C=O)cc(OC)c1O [Syringaldehyde] | 896.55 | 44.59 | 80.34
C=CC[C@@H]1/C=C(\C)C[C@H](C)C[C@H](OC)[C@H]2O[C@@](O)(C(=O)C(=O)N3CCCC[C@H]3C(=O)O[C@H](/C(C)=C/[C@@H]3CC[C@@H](O)[C@H](OC)C3)[C@H](C)[C@@H](O)CC1=O)[C@H](C)C[C@@H]2OC [Tacrolimus (FK506)] | 512.17 | 68.35 | 123.15
C/C=C(\C)C(=O)O [Tiglic acid] | 947.74 | 41.43 | 74.64
Clc1ccc(C(Cn2ccnc2)OCc2ccsc2Cl)c(Cl)c1 (stereo not drawn) [Tioconazole] | 537.96 | 66.75 | 120.27
NC[C@H]1O[C@H](O[C@H]2[C@H](O)[C@@H](O[C@H]3O[C@H](CO)[C@@H](O)[C@H](N)[C@H]3O)[C@H](N)C[C@@H]2N)[C@H](N)C[C@@H]1O [Tobramycin] | 971.48 | 39.96 | 72.00
